Data on two compounds can be found in US20110160251A1, “ANIMAL ECTOPARASITE CONTROL COMPOSITION” (priority 2009, published 2011).

The test system of the assay is Haemaphysalis longicornis. The experiment in a line: Test Example 6: filter paper contact test, fatality of ticks, compound in single solvent. Type of assay: in vivo. Particulars: 63.6 mg/ml, 0.2 ml on filter paper (treatment amount 2000 mg/m^2), after 24 hours at 25° C.; for Fatality rate of tick (%) Example 2 diisobutyl adipate: solvent diisobutyl adipate; for Fatality rate of tick (%) Example 1 diisopropyl adipate: solvent diisopropyl adipate; for Fatality rate of tick (%) Comparative Example 1 Propylene Carbonate: solvent propylene carbonate. As to the method: The halogen-containing organosulfur compound (33) or (35) was dissolved in a solvent such that the concentration of the halogen-containing organosulfur compound was 63.6 mg/ml to a test solution. A filter paper was put on the bottom face of a glass petri dish with 7 cm diameter and treated with 0.2 ml of the test solution (treatment amount: 2000 mg/m^2). On the filter paper, 10 Haemaphysalis longicornis were released and allowed to contact the filter paper. The glass petri dish was allowd to stand still at 25° C. After 24 hours, fatalities of the insects were observed.

For the compound `CON=C1CCC(C(C#N)S(=O)(=O)CCC(F)(F)F)CC1` (stereo not drawn) [Compound (33), 2-[4-(methoxyimino)cyclohexyl]-2-(3,3,3-trifluoropropylsulfonyl)acetonitrile], the “Fatality rate of tick (%) Example 2 diisobutyl adipate” value is given as 85%, the “Fatality rate of tick (%) Example 1 diisopropyl adipate” value was found to be 100% and the “Fatality rate of tick (%) Comparative Example 1 Propylene Carbonate” value is 25%.
Consider `CCON=C1CCC(C(C#N)S(=O)(=O)CCC(F)(F)F)CC1` (stereo not drawn) [Compound (35), 2-[4-(ethoxyimino)cyclohexyl]-2-(3,3,3-trifluoropropylsufonyl)acetonitrile], for which the “Fatality rate of tick (%) Example 2 diisobutyl adipate” value was found to be 80%, the “Fatality rate of tick (%) Example 1 diisopropyl adipate” value is listed as 100% and the “Fatality rate of tick (%) Comparative Example 1 Propylene Carbonate” value turned out to be 20%.
